Assay results: patent US20250304620A1, “ANTIMICROBIAL PEPTIDE AND APPLICATION THEREOF” (priority 2023, published 2025)
≈ marks a conversion by molar mass, not a printed value. Marks after values point to notes of the source that are not given here. Non-standard residues stand in square brackets, D forms with d. Residues, ends and D or L forms follow the SMILES beside them. d2Nal = N[C@H](Cc1ccc2ccccc2c1)C(=O)O

Legend:
[1] = tested on: Escherichia coli ATCC 25922; assay: Oral formulations on mice with systemic bacterial infection; format: in vivo, ICR mice; settings: three times a day for 7 days; for Number of mice that died on each day after infection: day 4 / Number of mice that died on each day after infection: day 5 / Number of mice that died on each day after infection: day 6 / Number of mice that died on each day after infection: day 7 / Number of mice that died on each day after infection: day 8 / Average survival times (Days): n = 10; for Average survival times (Days): observed for 14 d
Outline: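 Survival time and deaths were logged over a 14 d observation after oral gavage dosing (by body weight, thrice daily, 7 days, starting right after infection). Model: mixed-sex ICR mice, n=10 per group, intraperitoneal injection of E. coli ATCC 25922 suspension (0.2 mL, 1×10^7 CFU/mL).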

[2] = tested on: Staphylococcus aureus (NRS 384); settings: NRS 384, 3 h
Description: Trypsin (250 U/mg, pH=8.0) and AMPs (LV-1 to LV-30) were mixed in a ratio of 1:10 (w/w) and added to a reaction buffer (0.2 M sodium phosphate, 1 mM CaCl2), pH 7.5), and then incubated at 37° C. for 3 h.

[3] = tested on: Pseudomonas aeruginosa ATCC 27853; assay: Injectable formulations on mice infected with peritonitis; format: in vivo, ICR mice; settings: twice a day for 3 days; for Number of mice that died on each day after infection: day 1 / Number of mice that died on each day after infection: day 2 / Number of mice that died on each day after infection: day 3 / Number of mice that died on each day after infection: day 4 / Number of mice that died on each day after infection: day 5 / Average survival times (Days): n = 10; for Average survival times (Days): observed for 14 d
Outline: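 Survival readout: deaths and survival time tracked for 14 d. Treatment was tail-vein injection by body weight, twice a day for 3 consecutive days, starting right after intraperitoneal challenge with 0.2 mL of 1×10^9 CFU/mL P. aeruginosa ATCC 27853 in male and female ICR mice.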

[4] = tested on: Staphylococcus aureus (NRS 384); assay: microbe, parasite or virus in culture; format: cell-based; settings: NRS 384
Outline: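 MICs were read against S. aureus strain NRS 384 using twofold serial dilution by CLSI microdilution rules. Levofloxacin and Cbf-K16 were the reference controls, and the test was repeated 5 times in parallel.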

[5] = tested on: Bacillus subtilis ATCC 6633; format: cell-based
Excerpt: (§1) According to the Standards of Clinical and Laboratory Standards Institute (CLSI) of the USA for antimicrobial drug susceptibility test operation standards, the micronutrient serial twofold dilution method was used further determine MICs of 30 AMPs (S/N: LV-1 to LV-30) 10 clinically common sensitive strains and 6 fungi in clinical practice. The experiment was repeated 5 times in parallel.

Enterococcus ATCC 29212 = format: cell-based
Excerpt: as §1

Candida krusei ATCC 6258 = format: cell-based
Excerpt: as §1

[6] = tested on: Staphylococcus aureus ATCC 25923; format: cell-based
Excerpt: as §1

[7] = tested on: Candida tropicalis ATCC 750; format: cell-based
Excerpt: as §1

[8] = tested on: Escherichia coli ATCC 25922; format: cell-based
Excerpt: as §1

[9] = tested on: Klebsiella pneumoniae ATCC 700603; format: cell-based
Excerpt: as §1

[10] = tested on: Trichophyton ATCC MYA-4438; format: cell-based
Excerpt: as §1

[11] = tested on: Corynebacterium ATCC 7715; format: cell-based
Excerpt: as §1

[12] = tested on: Serratia marcescens ATCC 29021; format: cell-based
Excerpt: as §1

[13] = tested on: Candida albicans ATCC MYA-2876; format: cell-based
Excerpt: as §1

[14] = tested on: Pseudomonas aeruginosa ATCC 27853; format: cell-based
Excerpt: as §1

[15] = tested on: Salmonella typhimurium ATCC 14028; format: cell-based
Excerpt: as §1

Candida utilis ATCC 9950 = format: cell-based
Excerpt: as §1

[16] = tested on: Candida glabrata ATCC 15126; format: cell-based
Excerpt: as §1

SMILES: CC(=O)N[C@H](CCCCN)C(=O)N[C@H](CCCCN)C(=O)N[C@H](CC(C)C)C(=O)N[C@H](CC(C)C)C(=O)N[C@H](Cc1ccc2ccccc2c1)C(=O)N[C@H](CCCCN)C(=O)N[C@H](CC(C)C)C(=O)N[C@H](CCCCN)C(=O)N[C@H](Cc1ccc2ccccc2c1)C(=O)N[C@H](CCCCN)C(=O)N[C@H](CCCCN)C(N)=O [LV-17] (Ac-[dK][dK][dL][dL][d2Nal][dK][dL][dK][d2Nal][dK][dK]-NH2)
- Number of mice that died on each day after infection: day 4 ([1]; 0.2 mg/kg gavage): 1 Mouse
- Number of mice that died on each day after infection: day 5 ([1]; 0.2 mg/kg gavage): 2 Mouse
- Number of mice that died on each day after infection: day 6 ([1]; 0.2 mg/kg gavage): 1 Mouse
- Number of mice that died on each day after infection: day 7 ([1]; 0.2 mg/kg gavage): 1 Mouse
- Number of mice that died on each day after infection: day 8 ([1]; 0.2 mg/kg gavage): 2 Mouse
- Average survival times (Days) ([1]; 0.2 mg/kg gavage): 8.5** Days
- Number of mice that died on each day after infection: day 4 ([1]; 1 mg/kg gavage): 1 Mouse
- Number of mice that died on each day after infection: day 5 ([1]; 1 mg/kg gavage): 0 Mouse
- Number of mice that died on each day after infection: day 6 ([1]; 1 mg/kg gavage): 2 Mouse
- Number of mice that died on each day after infection: day 7 ([1]; 1 mg/kg gavage): 1 Mouse
- Number of mice that died on each day after infection: day 8 ([1]; 1 mg/kg gavage): 0 Mouse
- Average survival times (Days) ([1]; 1 mg/kg gavage): 10.7*** Days
- Number of mice that died on each day after infection: day 4 ([1]; 5 mg/kg gavage): 2 Mouse
- Number of mice that died on each day after infection: day 5 ([1]; 5 mg/kg gavage): 1 Mouse
- Number of mice that died on each day after infection: day 6 ([1]; 5 mg/kg gavage): 0 Mouse
- Number of mice that died on each day after infection: day 7 ([1]; 5 mg/kg gavage): 1 Mouse
- Number of mice that died on each day after infection: day 8 ([1]; 5 mg/kg gavage): 1 Mouse
- Average survival times (Days) ([1]; 5 mg/kg gavage): 9.8** Days
- survival time of mice infected with Escherichia coli ([1]; gavage, observed 14 d): superior to those of the Levofloxacin group
- Trypsin MIC [2]: 1 µg/mL
- Number of mice that died on each day after infection: day 1 ([3]; 0.2 mg/kg via tail vein): 1 Mouse
- Number of mice that died on each day after infection: day 2 ([3]; 0.2 mg/kg via tail vein): 2 Mouse
- Number of mice that died on each day after infection: day 3 ([3]; 0.2 mg/kg via tail vein): 1 Mouse
- Number of mice that died on each day after infection: day 4 ([3]; 0.2 mg/kg via tail vein): 1 Mouse
- Number of mice that died on each day after infection: day 5 ([3]; 0.2 mg/kg via tail vein): 1 Mouse
- Average survival times (Days) ([3]; 0.2 mg/kg via tail vein): 7.3** Days
- Number of mice that died on each day after infection: day 1 ([3]; 1 mg/kg via tail vein): 0 Mouse
- Number of mice that died on each day after infection: day 2 ([3]; 1 mg/kg via tail vein): 2 Mouse
- Number of mice that died on each day after infection: day 3 ([3]; 1 mg/kg via tail vein): 0 Mouse
- Number of mice that died on each day after infection: day 4 ([3]; 1 mg/kg via tail vein): 1 Mouse
- Number of mice that died on each day after infection: day 5 ([3]; 1 mg/kg via tail vein): 0 Mouse
- Average survival times (Days) ([3]; 1 mg/kg via tail vein): 10.6**** Days
- Number of mice that died on each day after infection: day 1 ([3]; 5 mg/kg via tail vein): 0 Mouse
- Number of mice that died on each day after infection: day 2 ([3]; 5 mg/kg via tail vein): 2 Mouse
- Number of mice that died on each day after infection: day 3 ([3]; 5 mg/kg via tail vein): 1 Mouse
- Number of mice that died on each day after infection: day 4 ([3]; 5 mg/kg via tail vein): 1 Mouse
- Number of mice that died on each day after infection: day 5 ([3]; 5 mg/kg via tail vein): 0 Mouse
- Average survival times (Days) ([3]; 5 mg/kg via tail vein): 9.5*** Days
- survival time of mice infected with Pseudomonas aeruginosa ([3]; tail vein, observed 14 d): superior to those of the Levofloxacin group
- MIC against Staphylococcus aureus (NRS 384) [4]: 1 µg/mL (≈ 0.64 µM)
- MIC Bacillus subtilis ATCC 6633 [5]: 4 µg/mL (≈ 2.56 µM)
- MIC Enterococcus ATCC 29212 (Enterococcus ATCC 29212): 2 µg/mL (≈ 1.28 µM)
- MIC Candida krusei ATCC 6258 (Candida krusei ATCC 6258): 8 µg/mL (≈ 5.12 µM)
- MIC Staphylococcus aureus ATCC 25923 [6]: 1 µg/mL (≈ 0.64 µM)
- MIC Candida tropicalis ATCC 750 [7]: 8 µg/mL (≈ 5.12 µM)
- MIC Escherichia coli ATCC 25922 [8]: 1 µg/mL (≈ 0.64 µM)
- MIC Klebsiella pneumoniae ATCC 700603 [9]: 4 µg/mL (≈ 2.56 µM)
- MIC Trichophyton ATCC MYA-4438 [10]: 8 µg/mL (≈ 5.12 µM)
- MIC Corynebacterium ATCC 7715 [11]: 2 µg/mL (≈ 1.28 µM)
- MIC Serratia marcescens ATCC 29021 [12]: 2 µg/mL (≈ 1.28 µM)
- MIC Candida albicans ATCC MYA-2876 [13]: 8 µg/mL (≈ 5.12 µM)
- MIC Pseudomonas aeruginosa ATCC 27853 [14]: 1 µg/mL (≈ 0.64 µM)
- MIC Salmonella typhimurium ATCC 14028 [15]: 4 µg/mL (≈ 2.56 µM)
- MIC Candida utilis ATCC 9950 (Candida utilis ATCC 9950): 16 µg/mL (≈ 10.2 µM)
- MIC Candida glabrata ATCC 15126 [16]: 8 µg/mL (≈ 5.12 µM)
